Literature values in patent US10028930B2, “Compositions capable of enhancing thermogenesis and uses thereof” (Specialty Nutrition Group, Inc., priority 2013, dated 2018).

How the values were obtained:
[1] = tested on: uncoupling proteins (UCP-1, UCP-2, UCP-3); conditions: rodents, brown and white adipose tissue
[2] = NAFLD subjects, compared to placebo

Fucoxanthin
expression of uncoupling proteins (UCP-1, UCP-2, UCP-3) [1]: inducing the expression
resting energy expenditure (REE) [2]: significantly increased
